This is an account of results in patent US11655308B2, “HM-3 fusion protein and application thereof” (TASLY BIOPHARMACEUTICALS CO., LTD., priority 2017, dated 2023).

The subject of experiment [1] is mice splenic lymphocyte proliferation stimulated by ConA. The class given is cell-based. Particulars: for inhibition rate / in vitro efficacy compared with TSL-4 control group: control: TSL-4 (P4 positive control, 12 μmol/L); for optimal (best) inhibition rate of splenic lymphocyte proliferation: ConA 5 μg/mL, 48 h, MTT, best of the tested concentrations. Here is the method: Experimental method: mice orbit was by bloodletting to death, and immediately immersed in 75% ethanol for 5-10 min, and then the spleen was removed on a clean bench and placed in PBS. The spleen was placed on a sterile cell strainer (200 mesh) and ground with a syringe nozzle; during grinding process, PBS was added continuously; the slurry was collected and centrifuged (1000 rpm for 5 min), then cells were washed 3 times with Tris-ammonium chloride solution, and washed again with a medium, and then re-suspended in the medium. Finally, trypan blue living cell staining was performed on the cells, and the survival rate was more than 95%. The concentration of viable cells was adjusted to 2×10^6/mL. […] was added to each well of a 96-well plate, meanwhile, ConA (concanavalin to simulate splenocyte proliferation) and drugs were added to each well. Six duplicates were set in each group.
The 96-well plate was incubated for 48 h in a 5% CO2 incubator at 37° C. 5 mg/mL of MTT was added to the 96-well plate, 20 μL for each well, and then it was incubated continuously for 4 h in the incubator. The culture medium in the 96-well plate was discarded and 100 μL DMSO was added to each well and mixed gently. Absorbance was measured by a microplate reader at the wavelength of 570 nm and reference wavelength of 630 nm.
Proliferation inhibition rate (PI) was calculated according to formula:
[formula] wherein, Atest is the absorbance of dosing group, and Acontrol is the absorbance of negative control. Test results were expressed as mean±SD, and statistical T test was performed. *P<0.05 indicates significant difference, **P<0.01 indicates extremely significant difference. Based upon the results, the efficacy of the fusion protein against rheumatoid arthritis was screened.
In the P4 control group, TSL-4 fusion protein served as a control agent.

Another experiment has as its system Rat chondrocyte. How it is done: Chondrocytes were cultured in a T75 flask for 3-4 days. When the degree of fusion reached 80%, the original culture medium was removed, and sterile PBS was added to clean the cells for 2-3 times, then a proper amount of digestive juice was added, and a fresh culture medium was added after the cells were detached. Cells were centrifuged to remove the cell sap containing the digestive juice, and a proper amount of fresh culture medium was added to be prepared into a cell suspension with appropriate concentration for cell subculture or cell experiments. Cell subculture began from generation P1 and ended till generation P5, and there were cryopreserved cells in each generation. Cells were used for the experiment when subcultured to P2-P5.
According to the inoculum size of 200 μL/well, the cell suspension with the density of 2.5*10^4/mL was inoculated onto a 96-well cell culture plate, and 3 groups were prepared in total, one for control group, and the other two groups were stimulated by hydrogen peroxide. A cell-free medium was prepared as a blank group. There were 4-5 sub-wells prepared in each group. The cell culture plate was put to an incubator for incubation for 24 hours. The culture medium was replaced to different experimental groups in the following day with a dose volume of 100 μl and incubated for 24 or 48 hours respectively.
At the end of incubation according to the experimental plan, 10 μL of 5 mg/ml MTT was added to each experimental group based upon 1/10 of the cell culture volume, so that the cells were incubated with MTT in the incubator for 4 hours. Afterwards, supernatant was carefully discarded, and 200 μL of dimethyl sulfoxide (DMSO) was added for mixing well, then the absorbance was measured on a microplate reader at a test wavelength of 570 nm. Calculating formula of relative cell activity ratio (%): a mean value of the absorbance (per well) in the experimental group/the absorbance in the control group multiplies by 100%. All experimental groups were expressed as mean±standard deviation (X±SD). The difference between each group was analyzed by Prism 7.0, and tested by one-way ANOVA. *P<0.05 means statistical difference, **P<0.01 means significant statistical difference, and […] means extremely significant statistical difference.
The experimental concentration of hydrogen peroxide ranged within 0.01, 0.1, 0.5, 1, 10 mM. In order to determine the H2O2 molding time and dosage, three molding time points at 24 hours, 48 hours and 72 hours were selected, and two detection wells were prepared in total for each dosage of hydrogen peroxide.

The next experiment concerns type-II CIA mice. The experiment can be described thus: Chronic inflammation model of type-II CIA in mice. The class given is in vivo, Balb/c mice. As to conditions: G3 Adalimumab 8 mg/kg SC 1 time/14 d, 1 time, day 60. How it is done:
Experimental method: Balb/c mice were taken and immunized for the first time. The concentration of type-II bovine collagen was 4 mg/mL. On the day of the experiment (day 0), complete Freund's adjuvant (CFA) and CII solution were mixed evenly in equal volume and emulsified. Excepting for the normal control group of Balb/c mice, mice in each group were sensitized by intracutaneous injection of 50 μL emulsifier at the end of tails. 21 days later, mice were re-immunized with the same dose of emulsifier at the end of tails, and incomplete Freund's adjuvant (IFA) served as an adjuvant at this time. Redness and swelling other arthritic symptoms appeared on toe joints of mice models approximately on the 29th day of the experiment, indicating successful modeling.
Animals in the modeling group on the 30th day of the experiment were randomly divided into:
There were 12 groups in total, and there were 8 pieces of mice in remaining each group excepting for 12 pieces in G1 (normal control group) and G2 (model group).
Measurement of mice weight: mice were weighed by an electronic balance every two days.
Measurement of sole thickness: the thickness of left, right and hind soles for each mouse was measured by a vernier caliper every two days.
Measurement of ankle joint width: the width of left and right ankle joints for each mouse was measured by vernier caliper every two days.
Arthritis index (AI) score: the severity of arthritis for each mouse was evaluated by a paw joint scoring method. 0: no redness and swelling; 1: redness and swelling of little toe joints; 2: redness and swelling of toe joints and toes; 3: redness and swelling of the portion below ankle joints; 4: redness and swelling of toe joints, toes and ankle joints. Scoring was performed once every two days until the end of the experiment.
Blood was collected from the orbit and serum was separated. After mice were killed by cervical dislocation, spleen and thymus were separated and weighed to calculate a spleen coefficient, and then the spleen and thymus were fixed in formalin stationary liquid.

Experiment [2] concerns transgenic blood vessel fluorescent zebrafish. Nature of the experiment: In vivo anti-angiogenesis in zebrafish (SIVs area). The arrangement: area of SIVs: unit not given here. As to conditions: for inhibiting effect on angiogenesis: 20 ng/tail; for inhibition rate of angiogenesis / area of SIVs: 24 h; for area of SIVs: normal control group 53193. Here is the method: Experimental method: transgenic blood vessel fluorescent zebrafish was randomly selected and put into a six-well plate with 30 fish per well, and intravenously injected HM-3 polypeptide, TSL-1 fusion protein, TSL-2 fusion protein, TSL-3 fusion protein and TSL-4 fusion protein respectively in accordance with the dosage of 20 ng/tail and 66 ng/tail; the dosage was […] in Avastin positive control and the injection volume was 20 nL/tail; the zebrafish injected 20 nL/tail of buffer solution served as a solvent control group, and the zebrafish without any treatment served as a normal control group. 10 pieces of zebrafish were randomly selected from each group after processed for 24 h to observe the intestinal vessels of the transgenic zebrafish by a fluorescence microscope, as well as to take and maintain images. Image analysis was performed by Nikon MS-Elements D 3.10 to calculate the area (S) of SIVs (subintestinal vessel, SIV). The calculation formula of angiogenesis inhibition rate was as follows: Angiogenesis inhibition rate (%)=(1−S(Test sample group)/S(Normal control group))×100%
Statistical analysis was performed by variance analysis and Dunnett's T-test and the results were expressed as Mean±SD, where p<0.05 indicates a significant difference.

Read-outs that look alike come from different tables or passages of the source.

For HM-3-HyFc [TSL-14], the “inhibition rate / in vitro efficacy compared with TSL-4 control group” value in experiment [1] was “Significantly lower”.

`OO` [H2O2, hydrogen peroxide]: the MTT test value in the experiment with Rat chondrocyte (0.01 mM H2O2, 24 h, 0 mM 2.35) is given as 2.51; in the experiment on Rat chondrocyte (0.01 mM H2O2, 48 h, 0 mM 2.24) it was 2.1; in the experiment with Rat chondrocyte (0.01 mM H2O2, 72 h, 0 mM 1.94), 1.99; in the experiment on Rat chondrocyte (0.1 mM H2O2, 24 h, 0 mM 2.35) it was 2.29; in the experiment on Rat chondrocyte (0.1 mM H2O2, 48 h, 0 mM 2.24), 2.08; in the experiment with Rat chondrocyte (0.1 mM H2O2, 72 h, 0 mM 1.94), 1.92. The MTT test value in the experiment with Rat chondrocyte (1 mM H2O2, 24 h, 0 mM 2.35) is listed as 1.28; in the experiment on Rat chondrocyte (1 mM H2O2, 48 h, 0 mM 2.24) it was 1.47; with Rat chondrocyte (1 mM H2O2, 72 h, 0 mM 1.94), 0.81; in the experiment with Rat chondrocyte (10 mM H2O2, 24 h, 0 mM 2.35) it was 0.06; in the experiment on Rat chondrocyte (10 mM H2O2, 48 h, 0 mM 2.24), 0.56; with Rat chondrocyte (10 mM H2O2, 72 h, 0 mM 1.94), −0.07.

In turn, Adalimumab [reference compound] registered an ankle width in the experiment with type-II CIA mice (model G2 4.83±0.20) of 4.23±0.08 mm. In the experiment on type-II CIA mice (model G2 11.5±1.7), this molecule yielded an arthritis scoring of 7.6±0.9. In the experiment on type-II CIA mice (model G2 13.62), this molecule displayed a paw circumference of 11.42±0.20 mm. This molecule returned a weight of mice in the experiment with type-II CIA mice (model G2 19.5±1.6) of 21.0 ± 1.5 g. In the experiment with type-II CIA mice (model G2 114.6±14.5), this molecule showed a spleen weight of 94.6 ± 6.7 mg.

HM-3-(GGGGS)3-mIgG4-Fc [TSL-2]: the “inhibiting effect on angiogenesis” value in experiment [2] is listed as “significant inhibitory effect”. In experiment [2] (20 ng/tail iv), the “inhibition rate of angiogenesis” value was found to be 19% and the “area of SIVs” value was found to be 42828. Moreover, in experiment [2] (66 ng/tail iv), the “inhibition rate of angiogenesis” value is reported as 39% and the “area of SIVs” value is listed as 32374. Moreover, the “optimal (best) inhibition rate of splenic lymphocyte proliferation” value in experiment [1] came out at 34.1%.

With HyFc-(GGGGS)3-HM-3 [TSL-16], the “inhibition rate / in vitro efficacy compared with TSL-4 control group” value in experiment [1] is reported as “Significantly lower”.

B1: HM-3-(GGGGS)3-IgG2-Fc (protein)
chain: IVRRADRAAVPGGGGRGDGGGGSGGGGSGGGGSERKCCVECPPCPAPPVAGPSVFLFPPKPKDTLMISRTPEVTCVVVDVSHEDPEVQFNWYVDGVEVHNAKTKPREEQFNSTFRVVSVLTVVHQDWLNGKEYKCKVSNKGLPAPIEKTISKTKGQPREPQVYTLPPSREEMTKNQVSLTCLVKGFYPSDISVEWESNGQPENNYKTTPPMLDSDGSFFLYSKLTVDKSRWQQGNVFSCSVMHEALHNHYTQKSLSLSPGK
Consider B1, for which the “inhibiting effect on angiogenesis” value in experiment [2] was “significant inhibitory effect”. In experiment [2] (20 ng/tail iv), the “inhibition rate of angiogenesis” value is listed as 25% and the “area of SIVs” value amounted to 39929. In experiment [2] (66 ng/tail iv), the “inhibition rate of angiogenesis” value is 30% and the “area of SIVs” value worked out at 37022. Moreover, the “optimal (best) inhibition rate of splenic lymphocyte proliferation” value in experiment [1] stood at 39.6%.
